Test results from patent US9133163B2, “Dihydropyrazole GPR40 modulators” (Bristol-Myers Squibb Company, priority 2012, dated 2015).

Legend:
hGPR40 [1] = target: T1, hGPR40 (Homo sapiens, UniProt O14842); assay: GPR40 IP-One HTRF assay in HEK293/GPR40 inducible cell lines; format: cell-based; set-up: expressed in transfected cells; conditions: HEK293 cells with tetracycline-inducible human GPR40; read-out: hGPR40 IP1 EC50
Protocol: GPR40 IP-One HTRF Assays in HEK293/GPR40 Inducible Cell Lines
Human, mouse and rat GPR40-mediated intracellular IP-One HTRF assays were established using human embryonic kidney HEK293 cells stably transfected with a tetracycline-inducible human, mouse or rat GPR40 receptor. Cells were routinely cultured in growth medium containing DMEM (Gibco Cat. #12430-047), 10% qualified FBS (Sigma, Cat. #F2442), 200 μg/ml hygromycin (Invitrogen, Cat. #16087-010) and 1.5 μg/ml blasticidin (Invitrogen, Cat. #R210-01). About 12-15 million cells were passed into a T175 tissue culture flask (BD FALCON® 353112) with growth medium and incubated for 16-18 hours (overnight) at 370 C with 5% CO2. The next day, assay medium was exchanged with growth medium containing 1000 ng/mL of tetracycline (Fluka Analytical, Cat. #87128) to induce GPR40 expression for 18-24 hours at […] incubator with 5% CO2. After induction, the cells were washed with PBS (Gibco, Cat. #14190-036) and detached with Cell Stripper (CELLGRO®, Cat. #25-056-CL). 10-20 mL growth medium were added to the flask and cells were collected in 50 mL tubes (FALCON®, Cat. #352098) and spun at 1000 RPM for 5 minutes. Culture medium was aspirated and the cells were resuspended in 10 mL of 1× IP-One Stimulation Buffer from the Cisbio IP-One kit (Cisbio, Cat. #62IPAPEJ). The cells were diluted to 1.4×10^6 cells/mL in Stimulation Buffer.
Test compounds were 3-fold, 11-point serially diluted in DMSO in a REMP assay plate (Matrix Cat. #4307) by BIOCEL® (Agilent). The compounds were transferred into an Echo plate (LABCYTE, Cat. #LP-0200) and […] of diluted compounds were transferred to an assay plate (proxi-plate from Perkin Elmer, Cat. #6008289) by Echo acoustic nano dispenser (LABCYTE, model ECHO550). 14 μL of the diluted cells were then added to the assay plate by Thermo (SN 836 330) CombiDrop and incubated at room temperature for 45 minutes. Then 3 μL of IP1 coupled to dye D2 from the Cisbio IP-One kit were added to the assay plate followed by 3 μL of Lumi4TM-Tb cryptate K from the kit. The plate was further incubated at room for 1 hour before reading on the Envision (Perkin Elmer Model2101) with an HTRF protocol. Activation data for the test compound over a range of concentrations was plotted as percentage activation of the test compound (100%=maximum response). After correcting for background [(sample read-mean of low control)/(mean of high control−mean of low control)](low control is DMSO without any compound), EC50 values were determined. The EC50 is defined as the concentration of test compound which produces 50% of the maximal response and was quantified using the 4 parameter logistic equation to fit the data.

hGPR40 [2] = target: T1, hGPR40; assay: FDSS-based intracellular calcium assay; format: cell-based; set-up: 3xFLAG; expressed in transfected cells; conditions: intracellular Ca2+ response, cells expressing GPR40
Protocol: FDSS-Based Intracellular Calcium Assay
Compounds are dissolved in DMSO and diluted to desired concentrations with assay buffer and added to the cells as 3× solution (20 μL per well). Run fluorescence/luminescence reader FDSS (Hamamatsu) to read intracellular Ca^2+ response.

T1 sequence (O14842 whole entry): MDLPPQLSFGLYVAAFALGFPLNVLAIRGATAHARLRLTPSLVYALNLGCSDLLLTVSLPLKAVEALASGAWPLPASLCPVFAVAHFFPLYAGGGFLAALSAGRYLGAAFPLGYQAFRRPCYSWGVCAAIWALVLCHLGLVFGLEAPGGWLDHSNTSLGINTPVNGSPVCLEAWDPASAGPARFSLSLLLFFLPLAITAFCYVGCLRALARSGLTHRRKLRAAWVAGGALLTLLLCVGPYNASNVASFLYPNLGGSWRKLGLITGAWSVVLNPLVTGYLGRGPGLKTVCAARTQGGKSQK

Work on `CC(C)Oc1ccc(F)c(N2CCC(Oc3ccc(N4N=C(C(F)(F)F)[C@@H](C)[C@@H]4CC(=O)O)cc3)C(C)C2)c1` (stereo partly drawn) [Example 12, 2-((4S,5S)-1-(4-((1-(2-Fluoro-5-isopropoxyphenyl)-3-methylpiperidin-4-yl)oxy)phenyl)-4-methyl-3-(trifluoromethyl)-4,5-dihydro-1H-pyrazol-5-yl)acetic acid] yielded an EC50 (hGPR40 [1]) of 253 nM and an EC50 (hGPR40 [2]) of 311 nM.
Compound `CCOc1ccc(F)c(N2CC[C@@H](Oc3ccc(N4N=C(c5ccc(C#N)cc5)[C@@H](CC)[C@@H]4CC(=O)O)cc3)[C@H](C)C2)c1` [Example 99, 2-((4S,5S)-3-(4-Cyanophenyl)-1-(4-(((3R,4R)-1-(5-ethoxy-2-fluorophenyl)-3-methylpiperidin-4-yl)oxy)phenyl)-4-ethyl-4,5-dihydro-1H-pyrazol-5-yl)acetic acid] has an EC50 (hGPR40 [1]) of 20 nM and an EC50 (hGPR40 [2]) of 25 nM.
For `COc1cc(N2CCC(Oc3ccc(N4N=C(C(F)(F)F)[C@@H](C)[C@@H]4CC(=O)O)cc3)CC2)c(F)cn1` [Example 79, 2-((4S,5S)-1-(4-((1-(5-Fluoro-2-methoxypyridin-4-yl)piperidin-4-yl)oxy)phenyl)-4-methyl-3-(trifluoromethyl)-4,5-dihydro-1H-pyrazol-5-yl)acetic acid], the EC50 (hGPR40 [1]) was 94 nM and the EC50 (hGPR40 [2]) was 163 nM.
Compound `COc1cccc(N2CCC(Oc3ccc(N4N=C(C(F)(F)F)[C@@H](C)[C@@H]4CC(=O)O)cc3)CC2)c1` [Example 40, 2-((4S,5S)-1-(4-((1-(3-Methoxyphenyl)piperidin-4-yl)oxy)phenyl)-4-methyl-3-(trifluoromethyl)-4,5-dihydro-1H-pyrazol-5-yl)acetic acid] has an EC50 (hGPR40 [1]) of 107 nM and an EC50 (hGPR40 [2]) of 620 nM.
Compound `COc1cc(F)c(F)c(N2CCC(Oc3ccc(N4N=C(C(F)(F)F)[C@@H](C)[C@@H]4CC(=O)O)cc3)CC2)c1` [Example 16, 2-((4S,5S)-1-(4-((1-(2,3-Difluoro-5-methoxyphenyl)piperidin-4-yl)oxy)phenyl)-4-methyl-3-(trifluoromethyl)-4,5-dihydro-1H-pyrazol-5-yl)acetic acid] has an EC50 (hGPR40 [1]) of 133 nM and an EC50 (hGPR40 [2]) of 273 nM.
In the case of `CCOc1ccc(F)c(N2CCC(Oc3ccc(N4N=C(C(F)(F)F)[C@@H](C)[C@@H]4CC(=O)O)cc3)C(CC(C)C)C2)c1` (single isomer, unassigned) [Example 27 (Isomer 2)], the EC50 (hGPR40 [1]) is reported as 84 nM and the EC50 (hGPR40 [2]) is reported as 34 nM.
Compound `CC[C@@H]1C(C(F)(F)F)=NN(c2ccc(OC3CCN(c4cc(OC)ccc4F)CC3)cc2)[C@H]1CC(=O)O` (single isomer, unassigned) [Example 88, Isomer 1] has an EC50 (hGPR40 [1]) of 18 nM and an EC50 (hGPR40 [2]) of 78 nM.
With `[2H]C([2H])([2H])Oc1cc(N2CC[C@@H](Oc3ccc(N4N=C(C(F)(F)F)[C@@H](C)[C@@H]4CC(=O)O)cc3)[C@H](C)C2)c(Cl)cn1` [Example 87, 2-((4S,5S)-1-(4-(((3R,4R)-1-(5-Chloro-2-d3-methoxypyridin-4-yl)-3-methylpiperidin-4-yl)oxy)phenyl)-4-methyl-3-(trifluoromethyl)-4,5-dihydro-1H-pyrazol-5-yl)acetic acid] the EC50 (hGPR40 [1]) was 6 nM and the EC50 (hGPR40 [2]) was 74 nM.
